Reference: patent US8637499B2, “Benzoxazepines as inhibitors of PI3K/mTOR and methods of their use and manufacture” (Exelixis, Inc., priority 2009, dated 2014)

What follows are compounds tested against mTORC1 (mTOR/GbL/Raptor) (Homo sapiens, UniProt P42345) (assay: mTOR/GbL/Raptor (mTORC1) ELISA Assay). Details: 0.2 nM mTORC1, 10 μM ATP, 50 nM NHis-tagged 4E-BP1; phosphorylation of 4E-BP1; read-out: IC50.
Type: biochemical
Description: mTOR/GbL/Raptor (mTORC1) ELISA Assay
The measurement of mTORC1 enzyme activity was performed in an ELISA assay format following the phosphorylation of 4E-BP1 protein. All experiments were performed in the 384-well format. Generally, 0.5 μL DMSO containing varying concentrations of the test compound was mixed with 15 μL enzyme solution. Kinase reactions were initiated with the addition of 15 μL of substrates-containing solution. The assay conditions were as follows; 0.2 nM mTORC1, 10 μM ATP and 50 nM NHis-tagged 4E-BP1 in 20 mM Hepes, pH 7.2, 1 mM DTT, 50 mM NaCl, 10 mM MnCl2, 0.02 mg/mL BSA, 0.01% CHAPS, 50 mM β-glycerophosphate. Following an incubation of 120 minutes at ambient temperature, 20 μL of the reaction volume was transferred to a Ni-Chelate-coated 384-well plate. The binding step of the 4E-BP1 protein proceeded for 60 minutes, followed by washing 4 times each with 50 μL of Tris-buffered saline solution (TBS). Anti-phospho-4E-BP1 rabbit-IgG (20 μL, 1:5000) in 5% BSA-TBST (0.2% Tween-20 in TBS) was added and further incubated for 60 minutes. Incubation with a secondary HRP-tagged anti-IgG was similarly performed after washing off the primary antibody (4 washes of 50 μL). Following the final wash step with TBST, 20 μL of SuperSignal ELISA Femto (Pierce Biotechnology) was added and the luminescence measured using an EnVision plate reader.

Row | IC50 [nM] | SMILES
1 | 250 to 700 | Cc1nc2ccc(-c3ccc4c(c3)CN(C(=O)N3CCN(C)C(=O)C3)CCO4)cc2[nH]1 [Compound 146, 1-methyl-4-{[7-(2-methyl-1H-benzimidazol-6-yl)-2,3-dihydro-1,4-benzoxazepin-4(5H)-yl]carbonyl}piperazin-2-one]
2 | 700 to 2600 | CC1CCN(C(=O)N2CCOc3ccc(-c4cc(N)[nH]n4)cc3C2)CC1 [Compound 10, 3-{4-[(4-methylpiperidin-1-yl)carbonyl]-2,3,4,5-tetrahydro-1,4-benzoxazepin-7-yl}-1H-pyrazol-5-amine]
3 | 250 to 700 | CCC1CC2(CCN(C(=O)N3CCOc4ccc(-c5ccc6nc(C)[nH]c6c5)cc4C3)CC2)CC(=O)N1 (stereo not shown) [Compound 155, 4-ethyl-9-{[7-(2-methyl-1H-benzimidazol-6-yl)-2,3-dihydro-1,4-benzoxazepin-4(5H)-yl]carbonyl}-3,9-diazaspiro[5.5]undecan-2-one]
4 | 700 to 2600 | Cc1nc2cc(-c3ccc4c(c3)CN(C(=O)N3CC[C@@](C)(O)C[C@@H]3c3ccccc3)CCO4)ccc2[nH]1 (racemic) [Compound 133, (±)-(2R,4R)-4-methyl-1-{[7-(2-methyl-1H-benzimidazol-5-yl)-2,3-dihydro-1,4-benzoxazepin-4(5H)-yl]carbonyl}-2-phenylpiperidin-4-ol]
5 | 250 to 700 | Cc1nc2ccc(-c3ccc4c(c3)CN(C(=O)N3CCC(O)(c5ccc(C(F)(F)F)cc5)CC3)CCO4)cc2[nH]1 [Compound 141, 1-{[7-(2-methyl-1H-benzimidazol-6-yl)-2,3-dihydro-1,4-benzoxazepin-4(5H)-yl]carbonyl}-4-[4-(trifluoromethyl)phenyl]piperidin-4-ol]
6 | 700 to 2600 | COc1cccc(N2CCN(C(=O)N3CCOc4ccc(-c5ccc6nc(C)[nH]c6c5)cc4C3)CC2)c1 [Compound 160, 7-(2-methyl-1H-benzimidazol-6-yl)-4-({4-[3-(methyloxy)phenyl]piperazin-1-yl}carbonyl)-2,3,4,5-tetrahydro-1,4-benzoxazepine]
7 | 700 to 2600 | CC1CCN(C(=O)N2CCOc3ccc(-c4ccc(N)nn4)cc3C2)CC1 [Compound 1, 6-{4-[(4-methylpiperidin-1-yl)carbonyl]-2,3,4,5-tetrahydro-1,4-benzoxazepin-7-yl}pyridazin-3-amine]
8 | 700 to 2600 | Cc1nc2ccc(-c3ccc4c(c3)CN(C(=O)N3CCN(c5ccccc5Cl)CC3)CCO4)cc2[nH]1 [Compound 159, 4-{[4-(2-chlorophenyl)piperazin-1-yl]carbonyl}-7-(2-methyl-1H-benzimidazol-6-yl)-2,3,4,5-tetrahydro-1,4-benzoxazepine]
9 | 700 to 2600 | CC1CCN(C(=O)N2CCOc3ccc(-c4cnc(N)cn4)cc3C2)CC1 [Compound 4, 5-{4-[(4-methylpiperidin-1-yl)carbonyl]-2,3,4,5-tetrahydro-1,4-benzoxazepin-7-yl}pyrazin-2-amine]
10 | 700 to 2600 | Cc1nc2ccc(-c3ccc4c(c3)CN(C(=O)NC3[C@H]5C[C@@H]6C[C@@H](C[C@H]3C6)C5)CCO4)cc2[nH]1 (stereo partly drawn) [Compound 149, 7-(2-methyl-1H-benzimidazol-6-yl)-N-[(1r,3r,5R,7R)-tricyclo[3.3.1.1~3,7~]dec-2-yl]-2,3-dihydro-1,4-benzoxazepine-4(5H)-carboxamide]
11 | ≤ 50 | Cc1nc2ccc(-c3ccc4c(c3)CN(C(=O)N3CCCC[C@H]3c3ccccc3)CCO4)cc2[nH]1 [Compound 65, 7-(2-methyl-1H-benzimidazol-6-yl)-4-{[(2S)-2-phenylpiperidin-1-yl]carbonyl}-2,3,4,5-tetrahydro-1,4-benzoxazepine]
12 | 700 to 2600 | Cc1nc2ccc(-c3ccc4c(c3)CN(C(=O)N3CCCCC3c3ccccc3C)CCO4)cc2[nH]1 (stereo not shown) [Compound 126, 7-(2-methyl-1H-benzimidazol-6-yl)-4-{[2-(2-methylphenyl)piperidin-1-yl]carbonyl}-2,3,4,5-tetrahydro-1,4-benzoxazepine]
13 | 250 to 700 | Nc1cnc(-c2ccc3c(c2)CN(C(=O)N2CCC(C(F)(F)F)CC2)CCO3)cn1 [Compound 6, 5-(4-{[4-(trifluoromethyl)piperidin-1-yl]carbonyl}-2,3,4,5-tetrahydro-1,4-benzoxazepin-7-yl)pyrazin-2-amine]
14 | 250 to 700 | Cc1nc2ccc(-c3ccc4c(c3)CN(C(=O)N3CCN(Cc5c(F)cccc5Cl)CC3)CCO4)cc2[nH]1 [Compound 152, 4-({4-[(2-chloro-6-fluorophenyl)methyl]piperazin-1-yl}carbonyl)-7-(2-methyl-1H-benzimidazol-6-yl)-2,3,4,5-tetrahydro-1,4-benzoxazepine]
15 | 700 to 2600 | Cc1nc2ccc(-c3ccc4c(c3)CN(C(=O)N3CCCCC3c3ccc(F)cc3C)CCO4)cc2[nH]1 (stereo not shown) [Compound 117, 4-{[2-(4-fluoro-2-methylphenyl)piperidin-1-yl]carbonyl}-7-(2-methyl-1H-benzimidazol-6-yl)-2,3,4,5-tetrahydro-1,4-benzoxazepine]
16 | 250 to 700 | Cc1nc2ccc(-c3ccc4c(c3)CN(C(=O)N3CCC(Cc5ccccc5)CC3)CCO4)cc2[nH]1 [Compound 171, 7-(2-methyl-1H-benzimidazol-6-yl)-4-{[4-(phenylmethyl)piperidin-1-yl]carbonyl}-2,3,4,5-tetrahydro-1,4-benzoxazepine]
17 | 250 to 700 | Cc1nc2ccc(-c3ccc4c(c3)CN(C(=O)N3CCCCC3Cc3ccccc3)CCO4)cc2[nH]1 (stereo not shown) [Compound 104, 7-(2-methyl-1H-benzimidazol-6-yl)-4-{[2-(phenylmethyl)piperidin-1-yl]carbonyl}-2,3,4,5-tetrahydro-1,4-benzoxazepine]
18 | 700 to 2600 | Cc1nc2ccc(-c3ccc4c(c3)CN(C(=O)N3CCN(c5ccccc5F)CC3)CCO4)cc2[nH]1 [Compound 165, 4-{[4-(2-fluorophenyl)piperazin-1-yl]carbonyl}-7-(2-methyl-1H-benzimidazol-6-yl)-2,3,4,5-tetrahydro-1,4-benzoxazepine]
19 | 250 to 700 | CCCCN(Cc1ccccc1)C(=O)N1CCOc2ccc(-c3ccc4nc(C)[nH]c4c3)cc2C1 [Compound 173, N-butyl-7-(2-methyl-1H-benzimidazol-6-yl)-N-(phenylmethyl)-2,3-dihydro-1,4-benzoxazepine-4(5H)-carboxamide]
20 | 700 to 2600 | Cc1nc2ccc(-c3ccc4c(c3)CN(C(=O)N3[C@@H]5CC[C@H]3C[C@@H](N)C5)CCO4)cc2[nH]1 [Compound 77, 8-{[7-(2-methyl-1H-benzimidazol-6-yl)-2,3-dihydro-1,4-benzoxazepin-4(5H)-yl]carbonyl}-8-azabicyclo[3.2.1]octan-3-(endo)-amine]

These compounds were tested against PI3Kα (Homo sapiens, UniProt P42336) (assay: PI3K Biochemical Assays (ATP consumption, luciferase-luciferin chemiluminescence)). Details: PI3Kα 1.5 nM, ATP 1 μM, PIP2 10 μM; percent of ATP consumed.
Description: PI3Kα activity is measured as the percent of ATP consumed following the kinase reaction using luciferase-luciferin-coupled chemiluminescence. Reactions were conducted in 384-well white, medium binding microtiter plates (Greiner). Kinase reactions were initiated by combining test compounds, ATP, substrate (PIP2), and kinase in a 20 μL volume in a buffer solution. The standard PI3Kalpha assay buffer is composed 50 mM Tris, pH 7.5, 1 mM EGTA, 10 mM MgCl2, 1 mM DTT and 0.03% CHAPS. The standard assay concentrations for enzyme, ATP, and substrate are 1.5 nM, 1 μM, and 10 μM, respectively. The reaction mixture was incubated at ambient temperature for approximately 2 h. Following the kinase reaction, a 10 μL aliquot of luciferase-luciferin mix (Promega Kinase-Glo) was added and the chemiluminescence signal measured using a Victor2 plate reader (Perkin Elmer). Total ATP consumption was limited to 40-60% and IC50 values of control compounds correlate well with literature references. Substituting PI3Kα with PI3KIβ, […], or […], the inhibitory activity of the compounds for the other isoforms of I3K were measured.

Chain of PI3Kα (P42336 whole entry): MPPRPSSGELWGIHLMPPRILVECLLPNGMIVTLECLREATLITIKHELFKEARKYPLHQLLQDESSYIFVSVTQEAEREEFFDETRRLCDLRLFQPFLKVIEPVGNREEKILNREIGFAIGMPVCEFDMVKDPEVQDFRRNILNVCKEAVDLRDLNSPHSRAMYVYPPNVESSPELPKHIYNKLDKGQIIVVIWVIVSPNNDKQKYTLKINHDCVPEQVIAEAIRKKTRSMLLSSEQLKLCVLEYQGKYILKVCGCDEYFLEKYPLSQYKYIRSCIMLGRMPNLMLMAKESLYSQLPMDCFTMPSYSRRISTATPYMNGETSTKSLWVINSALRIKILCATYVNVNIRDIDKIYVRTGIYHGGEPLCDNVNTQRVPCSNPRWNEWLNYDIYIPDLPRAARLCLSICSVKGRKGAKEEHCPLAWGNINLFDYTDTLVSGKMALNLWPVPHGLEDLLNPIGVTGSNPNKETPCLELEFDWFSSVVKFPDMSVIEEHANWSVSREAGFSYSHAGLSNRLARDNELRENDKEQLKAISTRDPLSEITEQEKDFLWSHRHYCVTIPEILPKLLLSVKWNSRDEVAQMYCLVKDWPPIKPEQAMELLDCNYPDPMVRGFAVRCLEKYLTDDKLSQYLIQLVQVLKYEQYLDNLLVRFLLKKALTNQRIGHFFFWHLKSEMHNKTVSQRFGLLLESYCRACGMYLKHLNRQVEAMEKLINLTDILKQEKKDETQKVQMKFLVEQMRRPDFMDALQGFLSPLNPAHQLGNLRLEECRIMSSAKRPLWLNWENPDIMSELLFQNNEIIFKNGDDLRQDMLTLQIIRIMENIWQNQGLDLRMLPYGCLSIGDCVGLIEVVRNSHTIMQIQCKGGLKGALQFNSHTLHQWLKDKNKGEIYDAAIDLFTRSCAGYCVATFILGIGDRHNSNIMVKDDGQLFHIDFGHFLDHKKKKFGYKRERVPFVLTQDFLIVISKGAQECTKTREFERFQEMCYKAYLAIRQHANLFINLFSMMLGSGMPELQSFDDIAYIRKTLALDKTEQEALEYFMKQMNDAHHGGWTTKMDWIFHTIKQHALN
Chain of PI3Kα (P27986 whole entry partner): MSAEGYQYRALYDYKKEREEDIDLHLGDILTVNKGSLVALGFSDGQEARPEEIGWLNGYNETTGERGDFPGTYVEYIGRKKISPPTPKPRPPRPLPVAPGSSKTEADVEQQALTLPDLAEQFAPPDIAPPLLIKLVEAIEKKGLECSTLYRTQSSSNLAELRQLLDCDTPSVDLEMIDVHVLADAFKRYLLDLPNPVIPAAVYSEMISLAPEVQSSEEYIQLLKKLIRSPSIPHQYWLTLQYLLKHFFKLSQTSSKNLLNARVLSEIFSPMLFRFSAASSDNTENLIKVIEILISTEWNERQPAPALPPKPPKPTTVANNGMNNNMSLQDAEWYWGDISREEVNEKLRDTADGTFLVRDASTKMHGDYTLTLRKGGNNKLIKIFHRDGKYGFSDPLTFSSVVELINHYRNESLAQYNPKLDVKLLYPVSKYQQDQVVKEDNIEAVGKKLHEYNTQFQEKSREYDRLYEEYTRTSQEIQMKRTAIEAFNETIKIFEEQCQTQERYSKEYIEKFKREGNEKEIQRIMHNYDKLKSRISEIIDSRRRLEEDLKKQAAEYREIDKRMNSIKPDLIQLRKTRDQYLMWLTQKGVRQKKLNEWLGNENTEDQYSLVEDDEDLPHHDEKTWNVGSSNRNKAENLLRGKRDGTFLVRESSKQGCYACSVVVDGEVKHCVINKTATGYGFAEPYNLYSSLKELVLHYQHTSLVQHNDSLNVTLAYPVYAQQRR

Row | IC50 [nM] | SMILES
21 | 1000 to 3000 | Cc1nc2ccc(-c3ccc4c(c3)CN(C(=O)N3CCN(C)CC3c3ccccc3)CCO4)cc2[nH]1 (stereo not shown) [Compound 144, 7-(2-methyl-1H-benzimidazol-6-yl)-4-[(4-methyl-2-phenylpiperazin-1-yl)carbonyl]-2,3,4,5-tetrahydro-1,4-benzoxazepine]
22 | 1000 to 3000 | Cc1nc2ccc(-c3ccc4c(c3)CN(C(=O)N3CCN(C(=O)c5ccco5)CC3)CCO4)cc2[nH]1 [Compound 158, 4-{[4-(furan-2-ylcarbonyl)piperazin-1-yl]carbonyl}-7-(2-methyl-1H-benzimidazol-6-yl)-2,3,4,5-tetrahydro-1,4-benzoxazepine]
23 | 1000 to 3000 | Cc1nc2ccc(-c3ccc4c(c3)CN(C(=O)N3CC[C@H](O)C3)CCO4)cc2[nH]1 [Compound 82, (3S)-1-{[7-(2-methyl-1H-benzimidazol-6-yl)-2,3-dihydro-1,4-benzoxazepin-4(5H)-yl]carbonyl}pyrrolidin-3-ol]
24 | 1000 to 3000 | Cc1nc2ccc(-c3ccc4c(c3)CN(C(=O)N3CCC(O)(C(F)(F)F)CC3c3ccc(F)c(F)c3)CCO4)cc2[nH]1 (stereo not shown) [Compound 119, 2-(3,4-difluorophenyl)-1-{[7-(2-methyl-1H-benzimidazol-6-yl)-2,3-dihydro-1,4-benzoxazepin-4(5H)-yl]carbonyl}-4-(trifluoromethyl)piperidin-4-ol]
25 | 1000 to 3000 | Cc1nc2ccc(-c3ccc4c(c3)CN(C(=O)N3CC[S+]([O-])CC3)CCO4)cc2[nH]1 [Compound 101, 7-(2-methyl-1H-benzimidazol-6-yl)-4-[(1-oxidothiomorpholin-4-yl)carbonyl]-2,3,4,5-tetrahydro-1,4-benzoxazepine]
